According to the NIST ThermoML archive (doi:10.1021/acs.jced.8b00713):

Conditions: Liquid; for viscosity: Vibrating wire viscometry; for mass density: Vibrating tube method

FC(F)(F)/C=C\C(F)(F)F [(Z)-1,1,1,4,4,4-hexafluorobut-2-ene]
Conditions | mass density [kg/m3] | viscosity [mPa·s]
253.14 K, 15000 kPa | – | 0.7477
253.14 K, 20000 kPa | – | 0.7916
253.15 K, 100 kPa | – | 0.6315
253.15 K, 5000 kPa | – | 0.6695
253.15 K, 25000 kPa | – | 0.8337
253.15 K, 30100 kPa | – | 0.871
253.16 K, 1000 kPa | – | 0.6387
253.16 K, 2000 kPa | – | 0.647
253.16 K, 10000 kPa | – | 0.7114
253.16 K, 40000 kPa | – | 0.9576
263.14 K, 2000 kPa | – | 0.5721
263.14 K, 5000 kPa | – | 0.5916
263.14 K, 30000 kPa | – | 0.7644
263.15 K, 100 kPa | – | 0.5599
263.15 K, 1000 kPa | – | 0.5656
263.15 K, 10000 kPa | – | 0.6247
263.15 K, 15000 kPa | – | 0.6579
263.15 K, 20000 kPa | – | 0.6906
263.16 K, 25000 kPa | – | 0.7286
263.16 K, 40000 kPa | – | 0.8352
273.13 K, 100 kPa | – | 0.493
273.13 K, 10000 kPa | – | 0.5526
273.14 K, 1000 kPa | – | 0.4975
273.14 K, 15000 kPa | – | 0.584
273.14 K, 25000 kPa | – | 0.643
273.14 K, 29700 kPa | – | 0.6776
273.15 K, 5000 kPa | – | 0.5227
273.15 K, 20000 kPa | – | 0.6131
273.16 K, 2000 kPa | – | 0.5035
273.16 K, 40000 kPa | – | 0.7422
283.14 K, 15000 kPa | – | 0.5206
283.14 K, 20000 kPa | – | 0.547
283.15 K, 100 kPa | 1402.57 | –
283.15 K, 1000 kPa | 1405.16 | –
283.15 K, 2000 kPa | 1408.09 | 0.446
283.15 K, 5000 kPa | 1416.4 | 0.462
283.15 K, 10000 kPa | 1429.39 | 0.49
283.15 K, 15000 kPa | 1441.21 | –
283.15 K, 20000 kPa | 1452.25 | –
283.15 K, 25000 kPa | 1462.46 | 0.5731
283.15 K, 30000 kPa | 1472 | 0.6009
283.15 K, 40000 kPa | 1489.73 | 0.6578
283.15 K, 50000 kPa | 1505.53 | –
283.15 K, 60000 kPa | 1520.01 | –
283.15 K, 80000 kPa | 1545.15 | –
283.15 K, 100000 kPa | 1566.76 | –
283.16 K, 100 kPa | – | 0.4357
283.17 K, 1000 kPa | – | 0.4423
293.15 K, 100 kPa | 1377.12 | –
293.15 K, 1000 kPa | 1380.09 | 0.3924
293.15 K, 2000 kPa | 1383.27 | 0.3978
293.15 K, 5000 kPa | 1392.34 | –
293.15 K, 10000 kPa | 1406.41 | 0.4385
293.15 K, 15000 kPa | 1419.13 | –
293.15 K, 15100 kPa | – | 0.4651
293.15 K, 20000 kPa | 1430.86 | –
293.15 K, 25000 kPa | 1441.76 | 0.5151
293.15 K, 30000 kPa | 1451.97 | 0.5414
293.15 K, 40000 kPa | – | 0.5919
293.15 K, 60000 kPa | 1501.97 | –
293.15 K, 80010 kPa | 1528.17 | –
293.15 K, 99990 kPa | 1550.16 | –
293.16 K, 200 kPa | – | 0.388
293.16 K, 5000 kPa | – | 0.4135
293.16 K, 20000 kPa | – | 0.4904
293.16 K, 40000 kPa | 1470.38 | –
293.16 K, 50000 kPa | 1486.98 | –
303.14 K, 20000 kPa | – | 0.441
303.15 K, 100 kPa | 1351.47 | –
303.15 K, 200 kPa | – | 0.3454
303.15 K, 1000 kPa | 1354.72 | 0.3494
303.15 K, 5000 kPa | – | 0.3692
303.15 K, 10000 kPa | 1383.63 | –
303.15 K, 15000 kPa | 1397.49 | 0.4173
303.15 K, 25000 kPa | 1421.76 | 0.4647
303.15 K, 30000 kPa | 1432.55 | 0.4879
303.15 K, 40000 kPa | – | 0.5357
303.15 K, 50000 kPa | 1469.43 | –
303.15 K, 60000 kPa | 1485.09 | –
303.15 K, 80000 kPa | 1512.19 | –
303.15 K, 100010 kPa | 1535.09 | –
303.16 K, 2000 kPa | 1358.24 | 0.3548
303.16 K, 5000 kPa | 1368.33 | –
303.16 K, 20000 kPa | 1410.02 | –
303.16 K, 40000 kPa | 1452.02 | –
303.17 K, 10000 kPa | – | 0.3938
313.14 K, 1000 kPa | 1327.46 | –
313.14 K, 100010 kPa | 1519.55 | –
313.15 K, 500 kPa | 1325.41 | 0.31
313.15 K, 1000 kPa | – | 0.3121
313.15 K, 2000 kPa | 1331.4 | 0.3173
313.15 K, 5000 kPa | 1342.64 | 0.3312
313.15 K, 10000 kPa | 1359.5 | –
313.15 K, 15000 kPa | 1374.49 | 0.3776
313.15 K, 20000 kPa | 1388.16 | 0.3989
313.15 K, 25000 kPa | 1400.64 | 0.421
313.15 K, 30000 kPa | 1412.04 | 0.4431
313.15 K, 40000 kPa | 1432.78 | 0.4866
313.15 K, 80010 kPa | 1495.94 | –
313.16 K, 10000 kPa | – | 0.3543
313.16 K, 50000 kPa | 1451.06 | –
313.16 K, 60000 kPa | 1467.37 | –
323.14 K, 5000 kPa | 1317.21 | –
323.14 K, 10000 kPa | 1335.83 | –
323.14 K, 20000 kPa | – | 0.3632
323.15 K, 500 kPa | 1297.83 | –
323.15 K, 1000 kPa | 1300.12 | –
323.15 K, 5000 kPa | – | 0.2981
323.15 K, 10000 kPa | – | 0.322
323.15 K, 15000 kPa | 1352.25 | 0.3425
323.15 K, 20000 kPa | 1366.96 | –
323.15 K, 25000 kPa | 1380.35 | 0.3839
323.15 K, 30000 kPa | 1392.69 | 0.4043
323.15 K, 40000 kPa | 1414.6 | –
323.15 K, 50000 kPa | 1433.91 | –
323.15 K, 80010 kPa | 1480.77 | –
323.15 K, 100010 kPa | 1505.41 | –
323.16 K, 500 kPa | – | 0.2776
323.16 K, 1000 kPa | – | 0.28
323.16 K, 2000 kPa | 1304.59 | 0.2844
323.16 K, 40000 kPa | – | 0.445
323.16 K, 60000 kPa | 1451.12 | –
333.14 K, 500 kPa | – | 0.2497
333.15 K, 1000 kPa | 1271.96 | 0.2521
333.15 K, 5000 kPa | 1291.31 | 0.2705
333.15 K, 10000 kPa | – | 0.2917
333.15 K, 15000 kPa | – | 0.3126
333.15 K, 20000 kPa | 1346 | 0.3321
333.15 K, 25000 kPa | 1360.41 | 0.3512
333.15 K, 30000 kPa | 1373.57 | 0.3741
333.15 K, 40000 kPa | 1396.93 | 0.41
333.15 K, 50000 kPa | 1417.34 | –
333.15 K, 60000 kPa | 1435.25 | –
333.15 K, 80000 kPa | 1466.47 | –
333.15 K, 100000 kPa | 1492.09 | –
333.16 K, 500 kPa | 1269.32 | –
333.16 K, 2000 kPa | 1277.07 | 0.2568
333.16 K, 10000 kPa | 1312.03 | –
333.16 K, 15000 kPa | 1330.02 | –
343.15 K, 1000 kPa | – | 0.2262
343.15 K, 2000 kPa | 1248.57 | 0.2308
343.15 K, 5000 kPa | – | 0.2443
343.15 K, 10000 kPa | – | 0.2663
343.15 K, 15000 kPa | 1307.63 | 0.2864
343.15 K, 20000 kPa | – | 0.3054
343.15 K, 25000 kPa | – | 0.3246
343.15 K, 30000 kPa | – | 0.3429
343.15 K, 40000 kPa | 1379.44 | 0.3794
343.15 K, 50000 kPa | 1400.93 | –
343.15 K, 60000 kPa | 1419.91 | –
343.15 K, 80000 kPa | 1452.33 | –
343.15 K, 100000 kPa | 1478.79 | –
343.16 K, 500 kPa | 1239.61 | 0.224
343.16 K, 1000 kPa | 1242.66 | –
343.16 K, 5000 kPa | 1264.73 | –
343.16 K, 10000 kPa | 1287.86 | –
343.16 K, 20000 kPa | 1324.98 | –
343.16 K, 25000 kPa | 1340.52 | –
343.16 K, 30000 kPa | 1354.59 | –
353.14 K, 2000 kPa | – | 0.2104
353.15 K, 1000 kPa | 1211.33 | –
353.15 K, 2000 kPa | 1218.18 | –
353.15 K, 5000 kPa | – | 0.221
353.15 K, 10000 kPa | – | 0.2419
353.15 K, 15000 kPa | 1284.42 | 0.2623
353.15 K, 20000 kPa | – | 0.2801
353.15 K, 25000 kPa | 1320.02 | –
353.15 K, 30000 kPa | 1335.13 | 0.3157
353.15 K, 40000 kPa | 1361.5 | 0.3504
353.15 K, 50000 kPa | 1384.21 | –
353.15 K, 60000 kPa | 1404.05 | –
353.15 K, 80010 kPa | 1438.01 | –
353.15 K, 100000 kPa | 1465.73 | –
353.16 K, 1000 kPa | – | 0.2057
353.16 K, 5000 kPa | 1236.75 | –
353.16 K, 10000 kPa | 1262.64 | –
353.16 K, 20000 kPa | 1303.28 | –
353.16 K, 25000 kPa | – | 0.2983
363.15 K, 1000 kPa | 1177.46 | –
363.15 K, 10000 kPa | 1236.32 | –
363.15 K, 25000 kPa | 1298.98 | –
363.15 K, 30000 kPa | 1315.14 | –
363.15 K, 60000 kPa | 1387.96 | –
363.15 K, 79990 kPa | 1423.19 | –
363.16 K, 2000 kPa | 1185.52 | –
363.16 K, 5000 kPa | 1207.05 | –
363.16 K, 15000 kPa | 1260.38 | –
363.16 K, 20000 kPa | 1280.92 | –
363.16 K, 40000 kPa | 1343.17 | –
363.16 K, 50000 kPa | 1367.09 | –
363.16 K, 100000 kPa | 1451.81 | –
373.15 K, 1000 kPa | 1140.74 | –
373.15 K, 5000 kPa | 1175.78 | –
373.15 K, 10020 kPa | 1209.06 | –
373.15 K, 15000 kPa | 1235.47 | –
373.15 K, 25000 kPa | 1277.24 | –
373.15 K, 30000 kPa | 1294.44 | –
373.15 K, 50000 kPa | 1349.23 | –
373.15 K, 60000 kPa | 1370.99 | –
373.15 K, 80010 kPa | 1407.73 | –
373.15 K, 100010 kPa | 1437.36 | –
373.16 K, 2000 kPa | 1150.47 | –
373.16 K, 20020 kPa | 1257.86 | –
373.16 K, 40000 kPa | 1324.14 | –
